Results published in patent publication US20230191413A1, “METHOD AND APPARATUS FOR MEASURING PHASE TRANSITION CHARACTERISTICS OF MACROMOLECULES” (CAMBRIDGE ENTERPRISE LIMITED, priority 2020, published 2023).

Target: T1, FUS-GFP (FUS^G156E-EGFP) (Homo sapiens, UniProt P35637, G156E)
T1 sequence (P35637 1-526 G156E): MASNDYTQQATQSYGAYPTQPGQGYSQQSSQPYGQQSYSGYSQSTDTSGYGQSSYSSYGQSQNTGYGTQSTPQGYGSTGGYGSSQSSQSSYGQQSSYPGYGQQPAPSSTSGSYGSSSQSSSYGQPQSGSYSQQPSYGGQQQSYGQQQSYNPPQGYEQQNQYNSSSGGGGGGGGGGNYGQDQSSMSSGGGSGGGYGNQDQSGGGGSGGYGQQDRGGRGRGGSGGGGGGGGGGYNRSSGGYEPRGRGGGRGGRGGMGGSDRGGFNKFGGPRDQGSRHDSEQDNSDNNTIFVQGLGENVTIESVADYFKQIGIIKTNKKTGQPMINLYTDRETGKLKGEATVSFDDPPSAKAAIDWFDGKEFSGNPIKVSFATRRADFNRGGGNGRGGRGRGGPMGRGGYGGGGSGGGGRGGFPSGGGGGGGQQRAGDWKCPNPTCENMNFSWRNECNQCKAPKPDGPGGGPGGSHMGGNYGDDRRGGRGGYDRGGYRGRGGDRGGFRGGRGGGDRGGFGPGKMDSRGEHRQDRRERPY
Assay: Droplet microfluidics phase diagram of FUS-GFP liquid-liquid phase separation as a function of protein and 1,6-hexanediol concentration
Assay type: biochemical
Conditions: micro-droplets, GFP fluorescence puncta; homogeneous phase at higher diol concentrations (FIG. 6, N=322 droplets)
Method: The method utilises droplet microfluidics to rapidly produce many micro-droplets, each of which can be considered a discrete microenvironment in which to study protein phase separation. By altering the input solution conditions, a broad range of phase-separation environments are produced rapidly in order to map LLPS behaviour over a wide region of chemical space. […] Using the microfluidic platform, the phase boundary between phase-separated and homogeneous FUS solution is determined, as modulated by the small molecule 1,6-hexanediol, which is known to strongly interfere with LLPS behaviour. […]
Alexa647 dye (10 μM) was mixed with the 1,6-hexanediol solution, to provide a fluorescent marker for the intra-droplet 1,6-hexanediol concentration. […] Samples were collected for three minutes before undergoing fluorescence imaging analysis.
The concentration of FUS^G156E-EGFP and 1,6-hexanediol present in each droplet was determined by integration of volume-normalised EGFP (green fluorescent protein) and Alexa647 fluorescence, respectively. Phase separation was observed by the presence of discrete puncta in GFP fluorescence, whereas homogeneous droplet fluorescence indicated the absence of phase separation (FIG. 5). […]

- concentration of 1,6-hexanediol at which phase separation of FUS-GFP was observable: < 1 % v/v
SMILES: OCCCCCCO [1,6-hexanediol]
